Reference: ChEMBL document CHEMBL1275398, “Side chain cyclization based on serine residues: synthesis, structure, and activity of a novel cyclic analogue of the parathyroid hormone fragment 1-11” (J Med Chem, 2010)
*1 amine or outer side, *2 acyl side, *3 side chain or, on linkers, in order; H or OH if unused. Where a SMILES comes first, the peptide text is derived from it. Bridges are numbered along the chain shown (N, C = ends). [ ]: non-standard residue; d: D form. Adipoyl = O=C(CCCCC(=O)[*:2])[*:1]; hArg = N=C(N)NCCCC[C@H](N)C(=O)O; Nle = CCCC[C@H](N)C(=O)O; Aib = CC(C)(N)C(=O)O

How the values were obtained:
[1] = biological target: T1, Parathyroid hormone/parathyroid hormone-related peptide receptor (Homo sapiens) (UniProt Q03431); assay: Agonist activity at recombinant PTHR1 expressed in HEK293 cells co-transfected with CRE-Luc assessed as maximal increase of adenylyl cyclase activity after 4.5 hrs by luciferase assay relative to control; assay type: functional, cell-based
T1 sequence (whole entry): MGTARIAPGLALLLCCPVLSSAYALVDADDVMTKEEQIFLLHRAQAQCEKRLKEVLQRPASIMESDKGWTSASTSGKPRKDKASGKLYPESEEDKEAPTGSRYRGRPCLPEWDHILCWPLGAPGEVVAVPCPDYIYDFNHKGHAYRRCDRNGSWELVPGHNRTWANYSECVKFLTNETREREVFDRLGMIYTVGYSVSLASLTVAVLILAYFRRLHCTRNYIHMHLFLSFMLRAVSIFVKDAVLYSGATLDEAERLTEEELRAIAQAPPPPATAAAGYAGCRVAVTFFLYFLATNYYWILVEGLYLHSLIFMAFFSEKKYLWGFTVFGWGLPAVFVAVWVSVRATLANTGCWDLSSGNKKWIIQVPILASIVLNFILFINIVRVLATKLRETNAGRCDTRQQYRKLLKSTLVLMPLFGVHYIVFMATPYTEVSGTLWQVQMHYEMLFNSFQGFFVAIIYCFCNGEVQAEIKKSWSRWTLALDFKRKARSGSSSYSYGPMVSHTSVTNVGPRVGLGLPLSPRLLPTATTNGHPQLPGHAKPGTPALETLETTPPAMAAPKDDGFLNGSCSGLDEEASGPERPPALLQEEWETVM

[2] = biological target: T2, Parathyroid hormone/parathyroid hormone-related peptide receptor (Homo sapiens, UniProt Q03431); assay: Agonist activity at recombinant PTHR1 expressed in HEK293 cells co-transfected with CRE-Luc assessed as increase of adenylyl cyclase activity after 4.5 hrs by luciferase assay; assay type: functional, cell-based
T2 sequence (Q03431 whole entry): T1 sequence (whole entry)

Row | SMILES | Activity [1] [%] | EC50 [2] [nM]
1 | CCCC[C@@H]1NC(=O)[C@H](CC(C)C)NC(=O)[C@@H](NC(=O)[C@@H](NC(=O)[C@H](CCC(=O)O)NC(=O)C(C)(C)NC(=O)[C@@H](NC(=O)C(C)(C)N)C(C)C)[C@@H](C)CC)CCCCNC(=O)CC[C@@H](C(=O)N[C@@H](CCCCNC(=N)N)C(N)=O)NC(=O)[C@H](Cc2cnc[nH]2)NC1=O (H-[Aib]V[Aib]EIKL[Nle]HE[hArg]-NH2; lactam 6-10) | 98 | 
2 | CCCC[C@H](NC(=O)[C@H](CC(C)C)NC(=O)[C@H](CCC(N)=O)NC(=O)[C@@H](NC(=O)[C@H](CCC(=O)O)NC(=O)C(C)(C)NC(=O)[C@@H](NC(=O)C(C)(C)N)C(C)C)[C@@H](C)CC)C(=O)N[C@@H](Cc1cnc[nH]1)C(=O)N[C@@H](CCC(N)=O)C(=O)N[C@@H](CCCCNC(=N)N)C(N)=O (H-[Aib]V[Aib]EIQL[Nle]HQ[hArg]-NH2) | 90 | 
3 | CCCC[C@@H]1NC(=O)[C@H](CC(C)C)NC(=O)[C@@H](NC(=O)[C@@H](NC(=O)[C@H](CCC(=O)O)NC(=O)C(C)(C)NC(=O)[C@@H](NC(=O)C(C)(C)N)C(C)C)[C@@H](C)CC)COC(=O)CCCCC(=O)OC[C@@H](C(=O)N[C@@H](CCCCNC(=N)N)C(N)=O)NC(=O)[C@H](Cc2cnc[nH]2)NC1=O (H-[Aib]V[Aib]EISL[Nle]HS[hArg]-NH2; linker 6-10 via Adipoyl) | 159 | 
4 | CCCC[C@H](NC(=O)[C@H](CC(C)C)NC(=O)[C@H](CCC(N)=O)NC(=O)[C@@H](NC(=O)[C@H](CCC(=O)O)NC(=O)C(C)(C)NC(=O)[C@@H](NC(=O)C(C)(C)N)C(C)C)[C@@H](C)CC)C(=O)N[C@@H](Cc1cnc[nH]1)C(=O)N[C@@H](CCC(N)=O)C(=O)N[C@@H](CCCCN=C(N)N)C(N)=O (H-[Aib]V[Aib]EIQL[Nle]HQ[hArg]-NH2) |  | 2.4
5 | CCCC[C@@H]1NC(=O)[C@H](CC(C)C)NC(=O)[C@@H](NC(=O)[C@@H](NC(=O)[C@H](CCC(=O)O)NC(=O)C(C)(C)NC(=O)[C@@H](NC(=O)C(C)(C)N)C(C)C)[C@@H](C)CC)CCCCNC(=O)CC[C@@H](C(=O)N[C@@H](CCCCN=C(N)N)C(N)=O)NC(=O)[C@H](Cc2cnc[nH]2)NC1=O (H-[Aib]V[Aib]EIKL[Nle]HE[hArg]-NH2; lactam 6-10) |  | 1120
6 | CCCC[C@@H]1NC(=O)[C@H](CC(C)C)NC(=O)[C@@H](NC(=O)[C@@H](NC(=O)[C@H](CCC(=O)O)NC(=O)C(C)(C)NC(=O)[C@@H](NC(=O)C(C)(C)N)C(C)C)[C@@H](C)CC)COC(=O)CCCCC(=O)OC[C@@H](C(=O)N[C@@H](CCCCN=C(N)N)C(N)=O)NC(=O)[C@H](Cc2cnc[nH]2)NC1=O (H-[Aib]V[Aib]EISL[Nle]HS[hArg]-NH2; linker 6-10 via Adipoyl) |  | 0.2
